For the first assay, the target named is hQC (Homo sapiens, UniProt Q16769). Description: Fluorometric (fluorescent) assay of hQC inhibition, IC50. In kind it is biochemical. Conditions: hQC inhibition; read-out: IC50. As for the experimental part:
All compounds were immediately tested regarding their activity as hQC inhibitors.
The purity of the compounds was determined by HPLC-MS. The IC50 value against hQC was measured using the fluorescent assay.
All measurements were performed with a BioAssay Reader HTS-7000Plus for microplates (Perkin Elmer) at 30° C. QC activity was evaluated fluorometrically using H-Gln-βNA. The samples consisted of 0.2 mM fluorogenic substrate, 0.25 U pyroglutamyl aminopeptidase (Unizyme, Horsholm, Denmark) in 0.2 M Tris/HCl, pH 8.0 containing 20 mM EDTA and an appropriately diluted aliquot of QC in a final volume of 250 μl. Excitation/emission wavelengths were 320/410 nm. The assay reactions were initiated by addition of glutaminyl cyclase. QC activity was determined from a standard curve of β-naphthylamine under assay conditions. One unit is defined as the amount of QC catalyzing the formation of 1 μmol pGlu-βNA from H-Gln-βNA per minute under the described conditions.
In a second fluorometric assay, QC was activity determined using H-Gln-AMC as substrate. Reactions were carried out at 30° C. utilizing the NOVOStar reader for microplates (BMG labtechnologies). The samples consisted of varying concentrations of the fluorogenic substrate, 0.1 U pyroglutamyl aminopeptidase (Qiagen) in 0.05 M Tris/HCl, pH 8.0 containing 5 mM EDTA and an appropriately diluted aliquot of QC in a final volume of 250 μl. Excitation/emission wavelengths were 380/460 nm. The assay reactions were initiated by addition of glutaminyl cyclase. QC activity was determined from a standard curve of 7-amino-4-methylcoumarin under assay conditions. The kinetic data were evaluated using GraFit sofware.
For inhibitor testing, the sample composition was the same as described above, except of the putative inhibitory compound added. For a rapid test of QC-inhibition, samples contained 4 mM of the respective inhibitor and a substrate concentration at 1 KM. For detailed investigations of the inhibition and determination of Ki-values, influence of the inhibitor on the auxiliary enzymes was investigated first. […] The inhibitory constant was evaluated by fitting the set of progress curves to the general equation for competitive inhibition using GraFit software.
hQC, sequence (Q16769 29-361): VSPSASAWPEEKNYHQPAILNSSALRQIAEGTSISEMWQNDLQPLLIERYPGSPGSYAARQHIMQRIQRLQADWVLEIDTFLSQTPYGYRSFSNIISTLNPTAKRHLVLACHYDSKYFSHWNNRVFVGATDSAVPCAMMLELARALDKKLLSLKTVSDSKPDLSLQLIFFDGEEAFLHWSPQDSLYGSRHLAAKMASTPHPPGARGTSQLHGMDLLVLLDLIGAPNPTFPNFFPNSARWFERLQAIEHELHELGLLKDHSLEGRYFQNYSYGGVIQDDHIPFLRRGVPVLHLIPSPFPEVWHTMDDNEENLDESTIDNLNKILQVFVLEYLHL
One may read the IC50 as the concentration that gives 50% inhibition. On to `Cc1cc(C)cc(C(Nc2ccc3[nH]cnc3c2)c2nnnn2Cc2ccccc2)c1` (stereo not drawn) [compound 124, (1H-Benzoimidazol-5-yl)-[(1-benzyl-1H-tetrazol-5-yl)-(3,5-dimethyl-phenyl)-methyl]-amine], for which the concentration for half-maximal inhibition (IC50) is 5.8 µM. Still for that read-out and setting: under `COc1ccc(C(Nc2ccc3[nH]cnc3c2)c2nnnn2CC(=O)OC(C)(C)C)cc1` (stereo not drawn) [compound 172, {5-[(1H-Benzoimidazol-5-ylamino)-(4-methoxy-phenyl)-methyl]-tetrazol-1-yl}-acetic acid tert-butyl ester] stands 4 µM; under `CCOC(=O)C1CCCCC1n1nnnc1C(Nc1ccc2[nH]cnc2c1)c1ccc(SC)cc1` (stereo not drawn) [compound 150], 4 µM; under `CCOC(=O)C1CCCCC1n1nnnc1C(Nc1ccc2[nH]cnc2c1)c1csc2ccccc12` (stereo not drawn) [compound 145], 1.3 µM.

`CCOC(=O)C1CCCCC1n1nnnc1C(Nc1ccc2[nH]cnc2c1)c1cc(Cl)ccc1O` (stereo not drawn) [compound 169, 2-{5-[(1H-Benzoimidazol-5-ylamino)-(5-chloro-2-hydroxy-phenyl)-methyl]-tetrazol-1-yl}-cyclohexacar-boxylic acid ethyl ester]: the IC50 was determined as 7.6 µM. Still for that read-out and setting: the value for `Brc1cc(Br)cc(C(Nc2ccc3[nH]cnc3c2)c2nnnn2CC2CCCO2)c1` (stereo not drawn) [compound 170, (1H-Benzoimidazol-5-yl)-{(3,5-dibromo-phenyl)-[1-(tetrahydro-furan-2-ylmethyl)-1H-tetrazol-5-yl]-methyl}-amine] was 4.9 µM; that for `CC(C)(C)OC(=O)Cn1nnnc1C(Nc1ccc2[nH]cnc2c1)c1ccc(-c2ccccn2)cc1` (stereo not drawn) [compound 212, {5-[(1H-Benzoimidazol-5-ylamino)-(4-pyridin-2-yl-phenyl)-methyl]-tetrazol-1-yl}-acetic acid tert-butyl ester] was 2.2 µM. The same measure, in the same setting: the value for `COc1ccccc1C(Nc1ccc2[nH]cnc2c1)c1nnnn1Cc1ccccc1` (stereo not drawn) [compound 151] was 5.8 µM; that for `c1cncc(Cn2nnnc2C(Nc2ccc3[nH]cnc3c2)c2ccc3nsnc3c2)c1` (stereo not drawn) [compound 185] was 6.7 µM. On the same count and under the same terms, under `c1ccc(C(c2ccccc2)n2nnnc2C(Nc2ccc3[nH]cnc3c2)c2cnc3ccccc3c2)cc1` (stereo not drawn) [compound 126, [(1-Benzhydryl-1H-tetrazol-5-yl)-quinolin-3-yl-methyl]-(1H-benzoimidazol-5-yl)-amine] stands 4.9 µM; under `c1ccc(-c2ccc(C(Nc3ccc4[nH]cnc4c3)c3nnnn3CCc3cccs3)cc2)nc1` (stereo not drawn) [compound 211, (1H-Benzoimidazol-5-yl)-{(4-pyridin-2-yl-phenyl)-[1-(2-thiophen-2-yl-ethyl)-1H-tetrazol-5-yl]-methyl}-amine], 2.2 µM. For `c1nc2cc(NC(c3ccc(N4CCCC4)cc3)c3nnnn3CC3CCCO3)ccc2[nH]1` (stereo not drawn) [compound 134, (1H-Benzoimidazol-5-yl)-{(4-pyrolidin-1-yl-phenyl)-[1-(tetrahydro-furan-2-ylmethyl)-1H-tetrazol-5-yl]-methyl}-amine], the half-maximal inhibitory concentration (IC50) amounted to 6.7 µM.

The assay is the same for the next values; noted with them: purified compound from preparative synthesis; fluorescent assay; read-out: IC50 hQC.
Take `CN(C)CCn1nnnc1C(NCCCn1ccnc1)C1CCC=CO1` (stereo not drawn) [Compound 38, {(3,4-Dihydro-2H-pyran-2-yl)-[1-(2-dimethylamino-ethyl)-1H-tetrazol-5-yl]-methyl}-(3-imidazol-1-yl-propyl)-amine]: the half-maximal inhibitory concentration (IC50) is 2.88 µM. On the same count and under the same terms, under `Cc1ccc(O)c(C(NCCCn2ccnc2)c2nnnn2CC(C)(C)C)c1` (stereo not drawn) [Compound 63, 2-[[1-(2,2-Dimethyl-propyl)-1H-tetrazol-5-yl]-(3-imidazol-1-yl-propylamino)-methyl]-4-methyl-phenol] stands 2.37 µM.

Staying with this assay, now noted: read-out: IC50.
In the case of `Clc1ccc(Cn2nnnc2[C@H](NCCCn2ccnc2)C2CCC=CO2)cc1` (stereo partly drawn) [compound 9, {(S)-[1-(4-Chloro-benzyl)-1H-tetrazol-5-yl]-3,4-dihydro-2H-pyran-2-yl-methyl}-(3-imidazol-1-yl-propyl)-amine], the half-inhibitory concentration (IC50) was determined as 4.9 µM. On the same count and under the same terms, the value for `c1ccc2oc(C(Nc3ccc4[nH]cnc4c3)c3nnnn3C3CCCCC3)cc2c1` (stereo not drawn) [compound 79, [Benzofuran-2-yl-(1-cyclohexyl-1H-tetrazol-5-yl)-methyl]-(1H-benzoimidazol-5-yl)-amine] was 3.1 µM. Still for that read-out and setting: the value for `Fc1ccc2c(C(Nc3ccc4[nH]cnc4c3)c3nnnn3C3CCCCC3)c[nH]c2c1` (stereo not drawn) [compound 81, (1H-Benzoimidazol-5-yl)-[(1-cyclohexyl-1H-tetrazol-5-yl)-(6-fluoro-1H-indol-3-yl)-methyl]-amine] was 3.1 µM; that for `Cc1ccc(O)c(C(NCCCn2ccnc2)c2nnnn2C(C)(C)C)c1` (stereo not drawn) [compound 59, 2-[(1-tert-Butyl-1H-tetrazol-5-yl)-(3-imidazol-1-yl-propylamino)-methyl]-4-methyl-phenol] was 1.3 µM; that for `COCCn1nnnc1C(NCCCn1ccnc1)c1ccc2cccc(O)c2n1` (stereo not drawn) [compound 40, 2-{(3-Imidazol-1-yl-propylamino)-[1-(2-methoxy-ethyl)-1H-tetrazol-5-yl]-methyl}-quinolin-8-ol] was 3.1 µM. On the same count and under the same terms, under `CC(c1ccccc1)C(Nc1ccc2[nH]cnc2c1)c1nnnn1CC1CCCO1` (stereo not drawn) [compound 100, (1H-Benzoimidazol-5-yl)-{2-phenyl-1-[1-(tetrahydro-furan-2-ylmethyl)-1H-tetrazol-5-yl]-propyl}-amine] stands 7.6 µM.

In the case of `Cn1nnnc1C(NCCCn1ccnc1)c1ccc2ccccc2n1` (stereo not drawn) [compound 31, (3-Imidazol-1-yl-propyl)-[(1-methyl-1H-tetrazol-5-yl)-quinolin-2-yl-methyl]-amine], the IC50 came to 4.9 µM. `Oc1cccc2ccc(C(NCCCn3ccnc3)c3nnnn3Cc3ccc(Cl)cc3)nc12` (stereo not drawn) [compound 4, 2-[[1-(4-Chloro-benzyl)-1H-tetrazol-5-yl]-(3-imidazol-1-yl-propylamino)-methyl]-quinolin-8-ol]: the half-maximal inhibitory concentration (IC50) was 4.9 µM.

Take `c1ccc2oc(C(Nc3ccc4[nH]cnc4c3)c3nnnn3CC3CCCO3)cc2c1` (stereo not drawn) [compound 101, {Benzofuran-2-yl-[1-(tetrahydro-furan-2-ylmethyl)-1H-tetrazol-5-yl]-methyl}-(1H-benzoimidazol-5-yl)-amine]: the 50% inhibitory concentration (IC50) worked out at 4.9 µM. On the same count and under the same terms, under `CCCCn1nnnc1C(NCCCn1ccnc1)c1cc2ccccc2o1` (stereo not drawn) [compound 23] stands 9.4 µM; under `c1cn(CCCNC(c2ccc3[nH]ccc3c2)c2nnnn2C[C@@H]2CCCO2)cn1` (stereo partly drawn) [compound 13, (3-Imidazol-1-yl-propyl)-((1H-indol-5-yl)-{1-[(S)-1-(tetrahydro-furan-2-yl)methyl]-1H-tetrazol-5-yl}-methyl)-amine], 6.7 µM; under `COC(=O)Cn1nnnc1C(NCCCn1ccnc1)c1ccc(F)c(C#N)c1` (stereo not drawn) [compound 53, {5-[(3-Cyano-4-fluoro-phenyl)-(3-imidazol-1-yl-propylamino)-methyl]-tetrazol-1-yl}-acetic methyl ester], 4 µM. Still for that read-out and setting: the value for `COCCCn1nnnc1C(NCCCn1ccnc1)c1ccc2[nH]ccc2c1` (stereo not drawn) [compound 35, (3-Imidazol-1-yl-propyl)-{(1H-indol-5-yl)-[1-(3-methoxy-propyl)-1H-tetrazol-5-yl]-methyl}-amine] was 7.6 µM.

Consider `COc1ccc(C(Nc2ccc3[nH]cnc3c2)c2nnnn2Cc2ccccc2Cl)c(C)c1` (stereo not drawn) [compound 77, (1H-Benzoimidazol-5-yl)-[[1-(2-chloro-benzyl)-1H-tetrazol-5-yl]-(4-methoxy-2-methyl-phenyl)-methyl]-amine], for which the half-inhibitory concentration (IC50) is 1.3 µM. Take `CN(C)CCn1nnnc1C(NCCCn1ccnc1)C1CCC=CO1` (stereo not drawn) [Compound 38, {(3,4-Dihydro-2H-pyran-2-yl)-[1-(2-dimethylamino-ethyl)-1H-tetrazol-5-yl]-methyl}-(3-imidazol-1-yl-propyl)-amine]: the IC50 was found to be 0.4 µM.

As for `Cc1ccc(O)c(C(NCCCn2ccnc2)c2nnnn2CC(C)(C)C)c1` (stereo not drawn) [Compound 63, 2-[[1-(2,2-Dimethyl-propyl)-1H-tetrazol-5-yl]-(3-imidazol-1-yl-propylamino)-methyl]-4-methyl-phenol], the IC50 worked out at 0.04 µM.

For `CCCCn1nnnc1C(NCCCn1ccnc1)c1ccc2cccc(O)c2n1` (stereo not drawn) [compound 20, 2-[(1-Butyl-1H-tetrazol-5-yl)-(3-imidazol-1-yl-propylamino)-methyl]-quinolin-8-ol], the half-maximal inhibitory concentration (IC50) was 2.2 µM. As to `COC(=O)Cn1nnnc1C(NCCCn1ccnc1)c1ccc2cccc(O)c2n1` (stereo not drawn) [compound 52], the IC50 came out at 4.9 µM. As to `COC(=O)Cn1nnnc1C(NCCCn1ccnc1)C1CC1` (stereo not drawn) [compound 57, {5-[Cyclopropyl-(3-imidazol-1-yl-propylamino)-methyl]-tetrazol-1-yl}-acetic methyl ester], the half-inhibitory concentration (IC50) came out at 0.4 µM.

In the case of `c1ccc2c(C(Nc3ccc4[nH]cnc4c3)c3nnnn3CC3CCCO3)csc2c1` (stereo not drawn) [compound 78], the IC50 came to 1.3 µM. Same read-out and setting: under `COC(=O)Cn1nnnc1C(NCCCn1ccnc1)[C@@H]1CCC=CO1` (stereo partly drawn) [compound 56, {5-[(S)-3,4-Dihydro-2H-pyran-2-yl-(3-imidazol-1-yl-propylamino)-methyl]-tetrazol-1-yl}-acetic methyl ester] stands 4.9 µM; under `CC(C)(C)Cn1nnnc1C(NCCCn1ccnc1)[C@@H]1CCC=CO1` (stereo partly drawn) [compound 67], 6.7 µM.

Values taken from patent publication US7741354B2, “Inhibitors of glutaminyl cyclase” (Probiodrug AG, priority 2006, dated 2010).
